This test has as its system male Varroa mites. Put plainly: mating bioassay: male response to a female deutochrysalis dummy. In kind it is in vivo, Varroa destructor. As to conditions: pure substances tested at 1, 10, 100 and 1000 ng. As to the method:
Male and female Varroa mites were obtained from brood combs of heavily infested Apis mellifera colonies at the Apicultural State Institute, University of Hohenheim in Germany. Sexually mature males and freshly molted adult females as well as female deutochrysalis were collected from brood cells 8 to 9 days after capping. Female deutochrysales and freshly molted adult female mites were transferred into queen cell cups (Nicot System®, Karl Jenter, Metzingen) and kept at 28-30° C. for a maximum of 2 hours in order to prevent a decrease in vitality and mobility.
The responses of male Varroa mites to extracts, fractions, and pure substances were measured by using the “mating bioassay”: total extracts, fractions and pure substances were applied to a piece of filter paper (size: 1.5 mm×15 mm) with a 10 μl Hamilton syringe. The filter paper was folded in the middle and placed at the edge of the plastic cell cups (Nicot System®, Karl Jenter, Metzingen, 9 mm inner diameter) that served as a test arena. A living female deutochrysalis was placed at the bottom of the cell cup at 3.5 mm distance to the filter paper. […] After three tests, the dummies were replaced by new ones. The male responses towards the deutochrysalis were categorized as follows: (1) movement towards/around the deutochrysalis and palpating it, (2) mounting the dorsum of the deutochrysalis and (3) copulation attempts on the venter of the deutochrysalis. The duration of each of these behaviours was recorded over a period of 5 minutes using the Observer 2.0 software (Noldus Information Technology). All tests were performed at temperatures of 33-34° C. at the bottom of the test arena.
The extract was applied to the filter paper in doses of 2 female equivalents; in control tests the filter paper was treated with ether only. Pentane and ether fractions were tested in concentrations of 5 female equivalents in the same way. The higher concentration was applied in order to equalize possible losses of active substances during the column fractionation. Single substances that were identified from the active fraction (see 2.6) were purchased (Sigma Aldrich, GC grade), dissolved in diethyl ether and were tested in doses of 1 ng, 10 ng, 100 ng and 1000 ng.
Behavioural data were analyzed with the SPSS 15.0 statistics software. One Way ANOVA was performed to evaluate the male response toward the female deutochrysalis while being exposed to total extracts, fractions or pure substances. Differences between groups with p<0.05 were considered statistically significant.
As for `CCCCCCCCCCCCCCCC(=O)OCC` [ethyl palmitate], the “dosage of maximum copulatory responses” value amounted to 10 ng.

Consider `CCCCCCCCCCCCCCCC(=O)O` [palmitic acid], for which the “dosage of maximum copulatory responses” value was 10 ng.

As to `CCCCCCCCCCCCCCCCCC(=O)O` [stearic acid], the “copulatory responses / male mating behaviour to pure substances” value was “lower compared to the other compounds” and the “dosage of maximum copulatory responses” value is given as 1 ng. As for `CCCCCCCC/C=C\CCCCCCCC(=O)OCC` [ethyl oleate], the “copulatory responses / male mating behaviour to pure substances” value is “the same trend was evident, albeit without significant differences”.

With `CCCCCCCC/C=C\CCCCCCCC(=O)O` [oleic acid], the “copulatory responses / male mating behaviour to pure substances” value is “highest copulatory responses”, the “dosage of lowest copulatory responses” value is listed as 1000 ng and the “dosage of maximum copulatory responses” value amounted to 10 ng. Regarding `CCCCCCCCCCCCCCCCCC(=O)OCC` [ethyl stearate], the “dosage of maximum copulatory responses” value was determined as 10 ng.

The record behind these values is US9326507B2, “Pheromone composition for treating Varroa mite infestation” (Universitaet Hohenheim, priority 2013, dated 2016).
